Data from article PMC3351444, “Molecular Evolution of a Peptide GPCR Ligand Driven by Artificial Neural Networks” (PLoS ONE, 2012).
Read-outs that look alike come from different tables or passages of the source. Square brackets hold non-standard residues; d marks the D form. Ends that are not written are not given here. Peptide text beside a SMILES is read from it.

Target: T1, human CMKLR1 (Homo sapiens, UniProt Q99788)
T1 construct: host or cells: HEK293A (Invitrogen), stably expressing human Gα15
T1 sequence (Q99788 1-373): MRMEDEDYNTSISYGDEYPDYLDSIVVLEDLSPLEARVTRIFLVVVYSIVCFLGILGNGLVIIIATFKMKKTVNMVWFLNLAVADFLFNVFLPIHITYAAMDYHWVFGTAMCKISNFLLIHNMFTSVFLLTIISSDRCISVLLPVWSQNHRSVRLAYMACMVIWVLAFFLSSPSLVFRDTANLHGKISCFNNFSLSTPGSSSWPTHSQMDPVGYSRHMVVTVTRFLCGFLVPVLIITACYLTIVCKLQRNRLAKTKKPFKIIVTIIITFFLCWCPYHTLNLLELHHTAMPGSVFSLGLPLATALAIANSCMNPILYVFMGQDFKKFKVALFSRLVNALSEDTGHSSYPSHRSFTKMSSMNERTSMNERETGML
Assay: Ca2+ mobilization (CellLux imaging) agonist assay in HEK293A cells expressing CMKLR1 and Gα15
Type: cell-based
Details: for EC50: NR where no EC50 is given, read-out: EC50
Description: HEK293A cells (Invitrogen) expressing CMKLR1 and Gα15 were seeded at 5*10^4 cells/well in a poly-D-lysine coated 96-well black well/clear bottom plate (BD Falcon) and cultured overnight. From eighteen to twenty-four hours later, cells were loaded with FLUO4-AM (Invitrogen). Then the cells were washed two times with C1 solution (130 mM NaCl, 5 mM KCl, 10 mM HEPES pH 7.4, 2 mM CaCl2, and 10 mM Glucose). After the final wash, a 100 µL of residual volume remained on the cells. Peptides were dissolved in 10% DMSO to a concentration of 1 mM and were diluted in C1 solution with 0.1 % BSA. They were aliquoted as 2x solutions in 96-well plates and were simultaneously transferred by the robotic system within the imager from the ligand plate to the cell plate. […] Fluorescence data was generated in duplicate and experiments were repeated for at least three times. […] For the calculation of concentration-response curves, signals of two wells receiving the same concentration of test substances were averaged and the fluorescence changes of corresponding buffer C1 wells were subtracted. Signals were normalized to background fluorescence. For the calculation of EC50 values, plots of amplitude versus concentrations were prepared in SigmaPlot 11.

[1] = Ca2+ mobilization, CMKLR1, decimal comma

Row | max response [1] | EC50 [1] [µM] | Compound | max response
1 | 1,76 DF/F0 | 0.194 | C[C@H](NC(=O)[C@H](CO)NC(=O)[C@H](Cc1ccccc1)NC(=O)[C@H](C)NC(=O)[C@H](Cc1ccccc1)NC(=O)[C@H](CCC(N)=O)NC(=O)[C@@H](N)Cc1ccccc1)C(=O)N[C@@H](Cc1ccccc1)C(=O)N[C@H](CO)C(=O)O [compound 103] (H-FQFAFSAF[dS]-OH; N-terminus assumed) | 
2 | 0,42 DF/F0 | 9.55 | C[C@H](NC(=O)[C@H](Cc1ccc(O)cc1)NC(=O)[C@@H](CCC(N)=O)NC(=O)CNC(=O)[C@@H]1CCCN1C(=O)[C@@H](Cc1ccc(O)cc1)NC(=O)[C@@H](N)Cc1ccc(O)cc1)C(=O)N[C@@H](Cc1ccc(O)cc1)C(=O)N[C@@H](CO)C(N)=O [compound 19] (H-Y[dY]PG[dQ]YAYS-NH2; N-terminus assumed) | 
3 | 1,72 DF/F0 | 0.1 | C[C@H](NC(=O)[C@H](Cc1ccccc1)NC(=O)[C@H](CCC(N)=O)NC(=O)CNC(=O)[C@H]1CCCN1C(=O)CNC(=O)[C@@H]1CCCN1)C(=O)N[C@@H](Cc1ccccc1)C(=O)N[C@H](CO)C(=O)O [compound 97] (H-PG[dP]GQFAF[dS]-OH; N-terminus assumed) | 
4 | 1,7 DF/F0 | 0.302 | CC(C)C[C@H](NC(=O)[C@H](Cc1ccc(O)cc1)NC(=O)[C@@H](Cc1ccccc1)NC(=O)[C@@H]1CCCN1C(=O)[C@H]1CCCN1C(=O)[C@@H]1CCCN1C(=O)[C@H](CC(C)C)NC(=O)[C@@H](N)Cc1ccc(O)cc1)C(=O)N1CCC[C@H]1C(=O)O [compound 152] (H-YLP[dP]P[dF]YLP-OH; N-terminus assumed) | 
5 | 0,61 DF/F0 | 21.5 | CC(C)C[C@H](NC(=O)[C@@H](Cc1ccccc1)NC(=O)[C@H]1CCCN1C(=O)[C@H](CC(C)C)NC(=O)[C@H](C)NC(=O)[C@H](Cc1ccc(O)cc1)NC(=O)[C@H]1CCCN1C(=O)[C@H](CC(C)C)NC(=O)[C@H](N)Cc1ccccc1)C(=O)O [compound 118] (H-[dF]L[dP]YAL[dP][dF]L-OH; N-terminus assumed) | 
6 | 1,47 DF/F0 | 3.47 | NC(=O)CC[C@H](NC(=O)CNC(=O)[C@@H]1CCCN1C(=O)[C@@H](Cc1ccccc1)NC(=O)[C@H](N)Cc1ccccc1)C(=O)N[C@@H](Cc1ccccc1)C(=O)NCC(=O)N[C@H](Cc1ccc(O)cc1)C(=O)N[C@H](CC(N)=O)C(N)=O [compound 15] (H-[dF][dF]PGQFG[dY][dN]-NH2; N-terminus assumed) | 
7 |  |  | CC(C)C[C@H](NC(=O)[C@@H](N)Cc1ccc(O)cc1)C(=O)N1CCC[C@H]1C(=O)NCC(=O)N[C@@H](CCC(N)=O)C(=O)N[C@@H](Cc1ccccc1)C(=O)N[C@@H](C)C(=O)N[C@@H](Cc1ccccc1)C(=O)N[C@H](CO)C(=O)O [compound 33] | 0,51 DF/F0
8 | 0,9 DF/F0 | 4.14 | CC(C)C[C@H](NC(=O)[C@H]1CCCN1C(=O)CNC(=O)[C@H](Cc1ccccc1)NC(=O)[C@H](CC(C)C)NC(=O)[C@@H](N)Cc1ccccc1)C(=O)N[C@@H](C)C(=O)N[C@@H](CC(C)C)C(=O)N1CCC[C@@H]1C(=O)O [compound 116] (H-FLFG[dP]LAL[dP]-OH; N-terminus assumed) | 
9 | 1,24 DF/F0 | 2.44 | C[C@H](NC(=O)[C@H](Cc1ccccc1)NC(=O)[C@@H](CCC(N)=O)NC(=O)CNC(=O)[C@H](Cc1ccccc1)NC(=O)[C@H](C)NC(=O)[C@@H](N)Cc1ccccc1)C(=O)N[C@@H](Cc1ccccc1)C(=O)N[C@H](CO)C(=O)O [compound 114] (H-FAFG[dQ]FAF[dS]-OH; N-terminus assumed) | 
10 | 1,40 DF/F0 | 7.13 | CC[C@@H](C)[C@@H](NC(=O)[C@H](Cc1ccccc1)NC(=O)[C@H](CCC(N)=O)NC(=O)CNC(=O)[C@@H]1CCCN1C(=O)[C@H](Cc1ccccc1)NC(=O)[C@H](N)Cc1c[nH]c2ccccc12)C(=O)N[C@@H](Cc1ccccc1)C(=O)N[C@@H](CO)C(N)=O [compound 18] (H-[dW]FPGQF[dI]FS-NH2; N-terminus assumed) | 
11 | 1,09 DF/F0 | 4.36 | YYPGQYAYS-NH2 [compound 17] | 
12 | 0,44 DF/F0 | 20.7 | WFPGQYAYS-NH2 [compound 23] | 
13 | 1,62 DF/F0 | 0.139 | CC(C)C[C@H](NC(=O)[C@H](Cc1ccccc1)NC(=O)[C@H](Cc1ccc(O)cc1)NC(=O)[C@@H]1CCCN1C(=O)[C@H]1CCCN1C(=O)[C@@H]1CCCN1C(=O)[C@H](CC(C)C)NC(=O)[C@H](N)Cc1ccc(O)cc1)C(=O)N[C@H](Cc1ccccc1)C(=O)O [compound 143] (H-[dY]LP[dP]PYFL[dF]-OH; N-terminus assumed) | 
14 | 1,55 DF/F0 |  | YFPGHFAFS-NH2 [compound 7] | 
15 | 1,84 DF/F0 | 0.0373 | YFPGQFAFK-NH2 [compound 2] | 
16 | 1,13 DF/F0 |  | CC(C)C[C@H](NC(=O)[C@H](N)Cc1ccc(O)cc1)C(=O)N1CCC[C@H]1C(=O)NCC(=O)N[C@@H](CCC(N)=O)C(=O)N[C@@H](Cc1ccc(O)cc1)C(=O)N[C@@H](C)C(=O)N[C@@H](Cc1ccccc1)C(=O)N[C@@H](Cc1ccccc1)C(=O)O [compound 43] (H-[dY]LPGQYAFF-OH; N-terminus assumed) | 
17 | 1,81 DF/F0 | 0.611 | C[C@H](NC(=O)[C@H](Cc1ccccc1)NC(=O)[C@H](CCC(N)=O)NC(=O)CNC(=O)[C@@H]1CCCN1C(=O)[C@@H](N)Cc1ccccc1)C(=O)N[C@@H](Cc1ccccc1)C(=O)N[C@H](CO)C(=O)N[C@H](CO)C(=O)O [compound 105] (H-FPGQFAF[dS][dS]-OH; N-terminus assumed) | 
18 | 0,67 DF/F0 | 1.18 | FPPGQGAFK-OH [compound 66] | 
19 | 1,34 DF/F0 | 3.44 | C[C@H](NC(=O)[C@H](Cc1ccccc1)NC(=O)[C@H](CCC(N)=O)NC(=O)[C@H]1CCCN1C(=O)CNC(=O)[C@H](Cc1ccccc1)NC(=O)[C@@H](N)Cc1ccc(O)cc1)C(=O)N[C@@H](Cc1ccccc1)C(=O)N[C@@H](CO)C(N)=O [compound 14] (H-YFG[dP]QFAFS-NH2; N-terminus assumed) | 
20 | 1,22 DF/F0 | 3.2 | C[C@H](NC(=O)[C@@H](Cc1ccccc1)NC(=O)[C@H](CCC(N)=O)NC(=O)CNC(=O)[C@@H]1CCCN1C(=O)[C@H](Cc1ccccc1)NC(=O)[C@@H](N)Cc1ccc(O)cc1)C(=O)N[C@@H](Cc1c[nH]c2ccccc12)C(=O)N[C@@H](CO)C(N)=O [compound 13] (H-YFPGQ[dF]AWS-NH2; N-terminus assumed) | 
21 |  |  | CSCC[C@H](NC(=O)[C@@H](N)Cc1ccc(O)cc1)C(=O)N1CCC[C@H]1C(=O)NCC(=O)N[C@@H](CCC(N)=O)C(=O)N[C@@H](Cc1ccccc1)C(=O)N[C@@H](C)C(=O)N[C@@H](Cc1ccccc1)C(=O)N[C@H](CO)C(=O)O [compound 40] (H-YMPGQFAF[dS]-OH; N-terminus assumed) | 0,74 DF/F0
22 |  |  | YFPGQFDFS-OH [compound 53] | 0,93 DF/F0
23 | 1,04 DF/F0 | 0.0526 | YFPGQFAFQ-OH [compound 50] | 
24 | 1,41 DF/F0 | 2.62 | YFPGYFAFG-NH2 [compound 11] | 
25 | 1,73 DF/F0 |  | CC(C)C[C@H](NC(=O)[C@@H](N)Cc1ccc(O)cc1)C(=O)N1CCC[C@H]1C(=O)NCC(=O)N[C@@H](CCC(N)=O)C(=O)N[C@@H](Cc1ccc(O)cc1)C(=O)N[C@@H](C)C(=O)N[C@@H](Cc1ccccc1)C(=O)N[C@H](CO)C(=O)O [compound 81] (H-YLPGQYAF[dS]-OH; N-terminus assumed) | 
26 | 1,31 DF/F0 | 1.88 | C[C@H](NC(=O)[C@@H](Cc1ccccc1)NC(=O)[C@H](CCC(N)=O)NC(=O)CNC(=O)[C@@H]1CCCN1C(=O)[C@@H](Cc1ccc(O)cc1)NC(=O)[C@H](N)Cc1ccc(O)cc1)C(=O)N[C@H](Cc1ccc(O)cc1)C(=O)N[C@H](CO)C(N)=O [compound 8] (H-[dY][dY]PGQ[dF]A[dY][dS]-NH2; N-terminus assumed) | 
27 | 1,48 DF/F0 | 2.22 | CC[C@H](C)[C@H](NC(=O)CNC(=O)[C@@H]1CCCN1C(=O)[C@H](Cc1ccccc1)NC(=O)[C@@H](N)Cc1ccc(O)cc1)C(=O)N[C@@H](Cc1ccccc1)C(=O)N[C@@H](C)C(=O)N[C@H](Cc1ccccc1)C(=O)N[C@@H](CO)C(N)=O [compound 10] (H-YFPGIFA[dF]S-NH2; N-terminus assumed) | 
28 | 1,61 DF/F0 | 1.21 | CC(C)C[C@H](NC(=O)CNC(=O)[C@H](Cc1ccc(O)cc1)NC(=O)[C@H](CC(C)C)NC(=O)[C@H](N)Cc1ccccc1)C(=O)N[C@@H](Cc1ccc(O)cc1)C(=O)N[C@@H](C)C(=O)N[C@@H](Cc1ccccc1)C(=O)N1CCC[C@@H]1C(=O)O [compound 108] (H-[dF]LYGLYAF[dP]-OH; N-terminus assumed) | 
